Laboratory results reported in patent US20240132484A1, “BROAD SPECTRUM ANTIVIRAL COMPOUNDS TARGETING THE SKI COMPLEX” (priority 2020, published 2024).
“And” between values parts separate entries of the source, which are not always exact repeats. Equal values may be shown once. Read-outs that look alike come from different tables or passages of the source.

What was measured:
cells (nuclei count) = conditions: for Relative cell count to DMSO controls, Average 1 μM / Relative cell count to DMSO controls, Average 5 μM / Relative cell count to DMSO controls, Average 10 μM / Relative cell count to DMSO controls, Average 25 μM / Relative cell count to DMSO controls, Average 50 μM: toxicity data, 100=DMSO control; for Toxicity Data, Average, Mean: average of Exp 1-3 (SMW475, SMW477, SMW478); for Relative cell count to DMSO controls, Average (for correlation analysis): average value over the 5 tested concentrations (1 to 50 uM); for Toxicity Data, Average, Mean (percentage relative to appropriate DMSO control): average of Exp 1 and Exp 2, n=4; for Toxicity Data, Percentage Relative to Appropriate DMSO Control: single well
SARS2 = format: cell-based, SARS-CoV-2; conditions: for Percentage Inhibition Average 1 μM / Screening data (Relative infection to DMSO controls) Average 1 μM: SARS2, 1 μM; for Screening data (Relative infection to DMSO controls) Average 1 μM / Screening data (Relative infection to DMSO controls) Average 5 μM / Screening data (Relative infection to DMSO controls) Average 10 μM / Screening data (Relative infection to DMSO controls) Average 25 μM / Screening data (Relative infection to DMSO controls) Average 50 μM / Average (relative infection to DMSO over the 5 tested concentrations): 100=DMSO control; for Percentage Inhibition Average 5 μM / Screening data (Relative infection to DMSO controls) Average 5 μM: SARS2, 5 μM; for Percentage Inhibition Average 10 μM / Screening data (Relative infection to DMSO controls) Average 10 μM: SARS2, 10 μM; for Percentage Inhibition Average 25 μM / Screening data (Relative infection to DMSO controls) Average 25 μM: SARS2, 25 μM; for Percentage Inhibition Average 50 μM / Screening data (Relative infection to DMSO controls) Average 50 μM: SARS2, 50 μM; for Average (relative infection to DMSO over the 5 tested concentrations): SARS2, average over 1 to 50 uM; for Infection Data, Average, Mean: average of Exp 1-3 (SMW475, SMW477, SMW478); for Infection Data, Average, Mean percentage infection relative to DMSO control: Average of Exp 1 (SMW506) and Exp 2 (SMW507); for Infection Data, Percentage Infection Relative to Appropriate DMSO Control: avg background subtraction

COC(=O)c1csc(CN(CCN(C)C)Cc2ccsc2)c1 [SILCS31]
Relative cell count to DMSO controls, Average 1 μM (cells (nuclei count)): 113.44
Relative cell count to DMSO controls, Average 5 μM (cells (nuclei count)): 114.77
Relative cell count to DMSO controls, Average 10 μM (cells (nuclei count)): 109.5
Relative cell count to DMSO controls, Average 25 μM (cells (nuclei count)): 102.57
Relative cell count to DMSO controls, Average 50 μM (cells (nuclei count)): 96.45
Toxicity Data, Average, Mean (cells (nuclei count); n 9, 1 uM): 113.44%
Toxicity Data, Average, Mean (cells (nuclei count); n 9, 5 uM): 114.77%
Toxicity Data, Average, Mean (cells (nuclei count); n 9, 10 uM): 109.50%
Toxicity Data, Average, Mean (cells (nuclei count); n 9, 25 uM): 102.57%
Toxicity Data, Average, Mean (cells (nuclei count); n 9, 50 uM): 96.45%
Relative cell count to DMSO controls, Average (for correlation analysis) (cells (nuclei count)): 107.35
SARS2 antiviral activity (SARS2): decrease in activity
Percentage Infection Relative to Appropriate DMSO Control with Avg Background Subtraction (SARS2; Exp 1 (SMW475), 1 uM, single well): 89.46% and 114.99% and 104.36%
Percentage Infection Relative to Appropriate DMSO Control with Avg Background Subtraction (SARS2; Exp 1 (SMW475), 5 uM, single well): 96.46% and 105.10% and 110.06%
Percentage Infection Relative to Appropriate DMSO Control with Avg Background Subtraction (SARS2; Exp 1 (SMW475), 10 uM, single well): 122.44% and 140.70% and 131.42%
Percentage Infection Relative to Appropriate DMSO Control with Avg Background Subtraction (SARS2; Exp 1 (SMW475), 25 uM, single well): 64.20% and 68.29% and 61.79%
Percentage Infection Relative to Appropriate DMSO Control with Avg Background Subtraction (SARS2; Exp 1 (SMW475), 50 uM, single well): 27.95% and 23.70% and 21.94%
Percentage Infection Relative to Appropriate DMSO Control with Avg Background Subtraction (SARS2; Exp 2 (SMW477), 1 uM, single well): 99.50% and 100.31% and 97.32%
Percentage Infection Relative to Appropriate DMSO Control with Avg Background Subtraction (SARS2; Exp 2 (SMW477), 5 uM, single well): 126.44% and 106.51% and 105.32%
Percentage Infection Relative to Appropriate DMSO Control with Avg Background Subtraction (SARS2; Exp 2 (SMW477), 10 uM, single well): 115.31% and 105.13% and 102.55%
Percentage Infection Relative to Appropriate DMSO Control with Avg Background Subtraction (SARS2; Exp 2 (SMW477), 25 uM, single well): 73.95% and 82.92% and 76.95%
Percentage Infection Relative to Appropriate DMSO Control with Avg Background Subtraction (SARS2; Exp 2 (SMW477), 50 uM, single well): 19.41% and 19.72% and 23.27%
Percentage Infection Relative to Appropriate DMSO Control with Avg Background Subtraction (SARS2; Exp 3 (SMW478), 1 uM, Greiner Celigo plates): 90.68% and 87.75% and 89.34%
Percentage Infection Relative to Appropriate DMSO Control with Avg Background Subtraction (SARS2; Exp 3 (SMW478), 5 uM, Greiner Celigo plates): 64.83% and 79.11% and 61.06%
Percentage Infection Relative to Appropriate DMSO Control with Avg Background Subtraction (SARS2; Exp 3 (SMW478), 10 uM, Greiner Celigo plates): 63.55% and 89.71% and 51.99%
Percentage Infection Relative to Appropriate DMSO Control with Avg Background Subtraction (SARS2; Exp 3 (SMW478), 25 uM, Greiner Celigo plates): 86.74% and 80.23% and 76.86%
Percentage Infection Relative to Appropriate DMSO Control with Avg Background Subtraction (SARS2; Exp 3 (SMW478), 50 uM, Greiner Celigo plates): 26.23% and 18.61% and 22.87%
Percentage Inhibition Average 1 μM (SARS2): 2.92%
Screening data (Relative infection to DMSO controls) Average 1 μM (SARS2): 97.08
Percentage Inhibition Average 5 μM (SARS2): 5.01%
Screening data (Relative infection to DMSO controls) Average 5 μM (SARS2): 94.99
Percentage Inhibition Average 10 μM (SARS2): −2.53%
Screening data (Relative infection to DMSO controls) Average 10 μM (SARS2): 102.53
Percentage Inhibition Average 25 μM (SARS2): 25.34%
Screening data (Relative infection to DMSO controls) Average 25 μM (SARS2): 74.66
Percentage Inhibition Average 50 μM (SARS2): 77.37%
Screening data (Relative infection to DMSO controls) Average 50 μM (SARS2): 22.63
Average (relative infection to DMSO over the 5 tested concentrations) (SARS2): 78.38
Infection Data, Average, Mean (SARS2; n 9, 1 uM): 97.08%
Infection Data, Average, Mean (SARS2; n 9, 5 uM): 94.99%
Infection Data, Average, Mean (SARS2; n 9, 10 uM): 102.53%
Infection Data, Average, Mean (SARS2; n 9, 25 uM): 74.66%
Infection Data, Average, Mean (SARS2; n 9, 50 uM): 22.63%

COc1ccc(CNCCc2ccccc2F)c(OCC(O)CN2CCOCC2)c1 (stereo not drawn) [SILCS49]
Toxicity Data, Average, Mean (percentage relative to appropriate DMSO control) (cells (nuclei count); 1 uM): 104.43%
Relative cell count to DMSO controls, Average 1 μM (cells (nuclei count)): 104.43
Toxicity Data, Average, Mean (percentage relative to appropriate DMSO control) (cells (nuclei count); 5 uM): 113.44%
Relative cell count to DMSO controls, Average 5 μM (cells (nuclei count)): 113.44
Toxicity Data, Average, Mean (percentage relative to appropriate DMSO control) (cells (nuclei count); 10 uM): 120.89%
Relative cell count to DMSO controls, Average 10 μM (cells (nuclei count)): 120.89
Toxicity Data, Average, Mean (percentage relative to appropriate DMSO control) (cells (nuclei count); 25 uM): 115.31%
Relative cell count to DMSO controls, Average 25 μM (cells (nuclei count)): 115.31
Toxicity Data, Average, Mean (percentage relative to appropriate DMSO control) (cells (nuclei count); 50 uM): 98.89%
Relative cell count to DMSO controls, Average 50 μM (cells (nuclei count)): 98.89
Toxicity Data, Percentage Relative to Appropriate DMSO Control (cells (nuclei count); Exp 1 (SMW506), 1 uM): 91% and 100%
Toxicity Data, Percentage Relative to Appropriate DMSO Control (cells (nuclei count); Exp 1 (SMW506), 5 uM): 103% and 110%
Toxicity Data, Percentage Relative to Appropriate DMSO Control (cells (nuclei count); Exp 1 (SMW506), 10 uM): 111% and 115%
Toxicity Data, Percentage Relative to Appropriate DMSO Control (cells (nuclei count); Exp 1 (SMW506), 25 uM): 109% and 115%
Toxicity Data, Percentage Relative to Appropriate DMSO Control (cells (nuclei count); Exp 1 (SMW506), 50 uM): 97% and 101%
Toxicity Data, Percentage Relative to Appropriate DMSO Control (cells (nuclei count); Exp 2 (SMW507), 1 uM): 111% and 116%
Toxicity Data, Percentage Relative to Appropriate DMSO Control (cells (nuclei count); Exp 2 (SMW507), 5 uM): 115% and 126%
Toxicity Data, Percentage Relative to Appropriate DMSO Control (cells (nuclei count); Exp 2 (SMW507), 10 uM): 124% and 133%
Toxicity Data, Percentage Relative to Appropriate DMSO Control (cells (nuclei count); Exp 2 (SMW507), 25 uM): 112% and 125%
Toxicity Data, Percentage Relative to Appropriate DMSO Control (cells (nuclei count); Exp 2 (SMW507), 50 uM): 91% and 107%
Relative cell count to DMSO controls, Average (for correlation analysis) (cells (nuclei count)): 110.59
Infection Data, Average, Mean percentage infection relative to DMSO control (SARS2; n=4, 1 uM): 90.24%
Infection Data, Average, Mean percentage infection relative to DMSO control (SARS2; n=4, 5 uM): 54.75%
Infection Data, Average, Mean percentage infection relative to DMSO control (SARS2; n=4, 10 uM): 29.10%
Infection Data, Average, Mean percentage infection relative to DMSO control (SARS2; n=4, 25 uM): 27.11%
Infection Data, Average, Mean percentage infection relative to DMSO control (SARS2; n=4, 50 uM): 13.54%
Infection Data, Percentage Infection Relative to Appropriate DMSO Control (SARS2; Exp 1 (SMW506), 1 uM, single well): 101.13% and 94.70%
Infection Data, Percentage Infection Relative to Appropriate DMSO Control (SARS2; Exp 1 (SMW506), 5 uM, single well): 55.30% and 50.40%
Infection Data, Percentage Infection Relative to Appropriate DMSO Control (SARS2; Exp 1 (SMW506), 10 uM, single well): 38.04% and 34.18%
Infection Data, Percentage Infection Relative to Appropriate DMSO Control (SARS2; Exp 1 (SMW506), 25 uM, single well): 27.25% and 33.31%
Infection Data, Percentage Infection Relative to Appropriate DMSO Control (SARS2; Exp 1 (SMW506), 50 uM, single well): 9.17% and 7.35%
Infection Data, Percentage Infection Relative to Appropriate DMSO Control (SARS2; Exp 2 (SMW507), 1 uM, single well): 67.31% and 97.84%
Infection Data, Percentage Infection Relative to Appropriate DMSO Control (SARS2; Exp 2 (SMW507), 5 uM, single well): 52.91% and 60.38%
Infection Data, Percentage Infection Relative to Appropriate DMSO Control (SARS2; Exp 2 (SMW507), 10 uM, single well): 23.33% and 20.87%
Infection Data, Percentage Infection Relative to Appropriate DMSO Control (SARS2; Exp 2 (SMW507), 25 uM, single well): 29.98% and 17.91%
Infection Data, Percentage Infection Relative to Appropriate DMSO Control (SARS2; Exp 2 (SMW507), 50 uM, single well): 19.58% and 18.05%
Percentage Inhibition Average 1 μM (SARS2): 9.76%
Screening data (Relative infection to DMSO controls) Average 1 μM (SARS2): 90.24
Percentage Inhibition Average 5 μM (SARS2): 45.25%
Screening data (Relative infection to DMSO controls) Average 5 μM (SARS2): 54.75
Percentage Inhibition Average 10 μM (SARS2): 70.90%
Screening data (Relative infection to DMSO controls) Average 10 μM (SARS2): 29.10
Percentage Inhibition Average 25 μM (SARS2): 72.89%
Screening data (Relative infection to DMSO controls) Average 25 μM (SARS2): 27.11
Percentage Inhibition Average 50 μM (SARS2): 86.46%
Screening data (Relative infection to DMSO controls) Average 50 μM (SARS2): 13.54
Average (relative infection to DMSO over the 5 tested concentrations) (SARS2): 42.95
